According to ChEMBL document CHEMBL3885861, “Open TG-GATES”:

Species on record: Rattus norvegicus
Assay: Open TG-GATES - Regimen: Single
Type: toxicity, organism-based, Sprague-Dawley
Set-up: regimen Single, gender Male, age 6 weeks
Conditions: in vivo, po, route gavage; for APTT / Bas / Eos / Fbg / Hb / Ht / Lym / MCH / MCHC / MCV / Mono / Neu / PT / Plat / Ret / WBC: tissue Blood; for KIDNEY_L / KIDNEY_R / KIDNEY_TOTAL: tissue Kidney; for LIVER: tissue Liver; for ALP / ALT / AST / BUN / CRE / DBIL / GLC / IP / K / LDH / Na / PL / RALB / TBIL / TC / TG / TP / gamma-GTP / Ca: tissue Plasma
[1] = 0 mg/kg, 3 h, dose level Control
[2] = 0 mg/kg, 6 h, dose level Control
[3] = 0 mg/kg, 9 h, dose level Control
[4] = 0 mg/kg, 24 h, dose level Control

SMILES: CN(C)CCCN1c2ccccc2CCc2ccc(Cl)cc21 [CLOMIPRAMINE]
- TERMINAL_BW [1]: 213.4 g
- APTT [1]: 23.8 s
- Bas [1]: 0.4%
- Eos [1]: 0.8%
- Fbg [1]: 259.6 mg/dL
- Hb [1]: 13.8 g/dL
- Ht [1]: 42.8%
- Lym [1]: 77.4%
- MCH [1]: 21.4 pg
- MCHC [1]: 32.3%
- MCV [1]: 66.4 fL
- Mono [1]: 3.6%
- Neu [1]: 16.8%
- PT [1]: 13.6 s
- Plat [1]: 115.6 x10_4/uL
- Ret [1]: 8.2%
- WBC [1]: 86.3 x10_2/uL
- KIDNEY_L [1]: 1 g
- KIDNEY_R [1]: 1 g
- KIDNEY_TOTAL [1]: 1.9 g
- LIVER [1]: 9.4 g
- ALP [1]: 1695.8 IU/L
- ALT [1]: 43.8 IU/L
- AST [1]: 82.8 IU/L
- BUN [1]: 9.6 mg/dL
- CRE [1]: 0.2 mg/dL
- DBIL [1]: 0.006 mg/dL
- GLC [1]: 182.4 mg/dL
- IP [1]: 9.7 mg/dL
- K [1]: 4.2 meq/L
- LDH [1]: 98.4 IU/L
- Na [1]: 140.2 meq/L
- PL [1]: 140 mg/dL
- RALB [1]: 2.5 g/dL
- TBIL [1]: 0.074 mg/dL
- TC [1]: 75.4 mg/dL
- TG [1]: 54.2 mg/dL
- TP [1]: 5.2 g/dL
- gamma-GTP [1]: 1 IU/L
- TERMINAL_BW [2]: 213.9 g
- APTT [2]: 16.6 s
- Bas [2]: 0%
- Eos [2]: 0.8%
- Fbg [2]: 254.2 mg/dL
- Hb [2]: 13.7 g/dL
- Ht [2]: 42.3%
- Lym [2]: 76.2%
- MCH [2]: 21 pg
- MCHC [2]: 32.3%
- MCV [2]: 65.1 fL
- Mono [2]: 2.8%
- Neu [2]: 19.2%
- PT [2]: 13.9 s
- Plat [2]: 125.3 x10_4/uL
- Ret [2]: 8.3%
- WBC [2]: 83.4 x10_2/uL
- KIDNEY_L [2]: 1 g
- KIDNEY_R [2]: 1 g
- KIDNEY_TOTAL [2]: 2 g
- LIVER [2]: 9.4 g
- ALP [2]: 1630.4 IU/L
- ALT [2]: 38.6 IU/L
- AST [2]: 76.6 IU/L
- BUN [2]: 9.2 mg/dL
- CRE [2]: 0.2 mg/dL
- Ca [2]: 10.8 mg/dL
- DBIL [2]: 0.006 mg/dL
- GLC [2]: 178.2 mg/dL
- IP [2]: 9.8 mg/dL
- K [2]: 4.2 meq/L
- LDH [2]: 90 IU/L
- Na [2]: 140.4 meq/L
- PL [2]: 142.6 mg/dL
- RALB [2]: 2.6 g/dL
- TBIL [2]: 0.07 mg/dL
- TC [2]: 71.8 mg/dL
- TG [2]: 77.8 mg/dL
- TP [2]: 5.4 g/dL
- gamma-GTP [2]: 1 IU/L
- TERMINAL_BW [3]: 213.6 g
- APTT [3]: 16.7 s
- Bas [3]: 0.2%
- Eos [3]: 1%
- Fbg [3]: 245 mg/dL
- Hb [3]: 13.4 g/dL
- Ht [3]: 41%
- Lym [3]: 78.2%
- MCH [3]: 21 pg
- MCHC [3]: 32.6%
- MCV [3]: 64.4 fL
- Mono [3]: 1.6%
- Neu [3]: 18%
- PT [3]: 14 s
- Plat [3]: 133.7 x10_4/uL
- Ret [3]: 8.1%
- WBC [3]: 86.1 x10_2/uL
- KIDNEY_L [3]: 1 g
- KIDNEY_R [3]: 1 g
- KIDNEY_TOTAL [3]: 2 g
- LIVER [3]: 8.5 g
- ALP [3]: 1606 IU/L
- ALT [3]: 39.8 IU/L
- AST [3]: 79.8 IU/L
- BUN [3]: 9.8 mg/dL
- CRE [3]: 0.2 mg/dL
- DBIL [3]: 0.008 mg/dL
- GLC [3]: 181 mg/dL
- IP [3]: 10.1 mg/dL
- K [3]: 4 meq/L
- LDH [3]: 109.8 IU/L
- Na [3]: 140.6 meq/L
- PL [3]: 139.2 mg/dL
- RALB [3]: 2.4 g/dL
- TBIL [3]: 0.07 mg/dL
- TC [3]: 75.4 mg/dL
- TG [3]: 51.2 mg/dL
- TP [3]: 5.1 g/dL
- gamma-GTP [3]: 1 IU/L
- TERMINAL_BW [4]: 229.8 g
- APTT [4]: 18 s
- Bas [4]: 0%
- Eos [4]: 0.8%
- Fbg [4]: 257.8 mg/dL
- Hb [4]: 13.5 g/dL
- Ht [4]: 41.6%
- Lym [4]: 82.6%
- MCH [4]: 20.5 pg
- MCHC [4]: 32.4%
- MCV [4]: 63.4 fL
- Mono [4]: 2.8%
- Neu [4]: 12.6%
- PT [4]: 13.4 s
- Plat [4]: 129 x10_4/uL
- Ret [4]: 7.4%
- WBC [4]: 82.9 x10_2/uL
- KIDNEY_L [4]: 1 g
- KIDNEY_R [4]: 1 g
- KIDNEY_TOTAL [4]: 2.1 g
- LIVER [4]: 11 g
- ALP [4]: 1743.2 IU/L
- ALT [4]: 45.8 IU/L
- AST [4]: 73.4 IU/L
- BUN [4]: 14 mg/dL
- CRE [4]: 0.2 mg/dL
- Ca [4]: 10.9 mg/dL
- DBIL [4]: 0.01 mg/dL
- GLC [4]: 176.4 mg/dL
- IP [4]: 8.2 mg/dL
- K [4]: 4.1 meq/L
- LDH [4]: 80.2 IU/L
- Na [4]: 140.8 meq/L
- PL [4]: 161.6 mg/dL
- RALB [4]: 2.6 g/dL
- TBIL [4]: 0.062 mg/dL
- TC [4]: 83.2 mg/dL
- TP [4]: 5.5 g/dL
- gamma-GTP [4]: 1 IU/L
- TERMINAL_BW (10 mg/kg, 3 h, dose level Low): 216.3 g
